Results on 8 compounds are retold here after PMC10058425, “Exploring pta Alternatives in the Development of Ruthenium–Arene Anticancer Compounds” (Molecules, 2023).

The test system of one test is MG-63 (osteosarcoma). As to the kind of experiment: MTT cell viability assay, MG-63. Type of test: cell-based, Human. The settings on record: 24 h of incubation, read-out: IC50 ± SD on MG-63. Here is the method:
(§1) Cell viability studies were determined by the MTT assay for complexes 1–8 toward MCF7 (breast adenocarcinoma), MDA-MB-231 (triple-negative breast adenocarcinoma), MG-63 (osteosarcoma), and HT-29 (colorectal carcinoma) after 24 h of incubation with new ruthenium compounds. Cisplatin was used as antitumor clinical reference. The three solid tumors selected for the cell viability study were chosen due to high incidence and the low efficacy of the current treatments. The two breast cancer cell lines used in this study represent two of the most relevant subtypes of breast cancer (MCF7: receptor-estrogen-positive breast cancer subtype; MDA-MB-231: triple-negative breast cancer subtype).
(§2) Human breast cancer cell lines (MCF-7 and MDA-MB-231), human bone cancer cell line (MG-63), and human colorectal cancer cell line (HT-29) were grown in Dulbecco’s modified Eagle’s medium (DMEM) containing 10% fetal bovine serum (FBS), 100 IU/mL penicillin, and 100 μg/mL streptomycin at 37 °C in 5% CO2 atmosphere. These cancer cell lines were grown in a […] until they reached 70–80% confluence. Then, the cells were subcultured using TrypLE TM. For experiments, cells were grown in multi-well plates. Dulbecco’s modified Eagle’s medium (DMEM) and TrypLE^TM were purchased from Gibco (Gaithersburg, MD, USA), and fetal bovine serum (FBS) was purchased from Internegocios (Argentina). After 24 h, the monolayers were washed with DMEM and incubated under different conditions according to the experiments. Tissue culture materials were purchased from Corning (Princeton, NJ, USA).
(§3) The 3-(4,5-dimethylthiazol-2-yl)-2,5-diphenyltetrazolium bromide (MTT) assay was performed according to Mosmann. Briefly, cells were seeded in a 96-well dish, allowed to attach for 24 h, and treated with different concentrations of complexes […] (2.5–100 µM) at 37 °C for 24 h. Afterward, the medium was changed and the cells were incubated with 0.5 mg/mL MTT under normal culture conditions for 3 h. Cell viability was marked by conversion of the tetrazolium salt MTT to a colored formazan by mitochondrial dehydrogenases. Color development was measured spectrophotometrically with a microplate reader multiskan FC (Thermo scientific) at 570 nm after cell lysis in DMSO (100 µL per well). Cell viability was plotted as the percentage of the control value.
On the technique in general: Formazan colour is commonly taken as a measure of viable cells.

In test [1] the test system is MCF7 (breast adenocarcinoma). Nature of the test: MTT cell viability assay, MCF7. The test is classed as cell-based, Human. The settings on record: 24 h of incubation, read-out: IC50 ± SD on MCF7. Here is the method: as §1, §2, §3
For test [2], the target named is Glutathione S-transferase from horse liver (GST). As to the kind of experiment: GST inhibition assay. Type of test: biochemical. As to conditions: for Ki: Dixon plots, substrate 200, 400, 800 μM; for IC50 / GST IC50: substrate 1-chloro-2,4-dinitrobenzene, pH 6.5, 25 °C. Here is the method:
The activity of GST was measured according to the method described by Habig et al. (1974). Stock solutions of 1–8 (1 mg/mL) were prepared in 100% methanol (MeOH). Then, stock solutions of 1–8 and negative controls were added to the wells and progressively diluted in 100 mM sodium phosphate buffer (pH 6.5) at a final volume of 50 μL. 1-Chloro-2,4-dinitrobenzene (Sigma-Aldrich Co., St. Louis, MO, USA) was dissolved in EtOH to obtain a 50 mM solution, then diluted with 100 mM sodium phosphate buffer (pH 6.5) to a final concentration of 4 mM. This solution (50 μL) and solution of 2 mM reduced glutathione (100 μL), dissolved in the same buffer were added into the microtiter plate wells. Glutathione S-transferase from horse liver (GST; Sigma-Aldrich Co., St. Louis, MO, USA) was used as the source of enzyme and dissolved in 100 mM sodium phosphate buffer (pH 6.5). 50 μL of enzyme solution was added into wells to start the reaction. The final enzyme concentration was 0.044 U/mL. A blank reaction was performed with the appropriate dilution of MeOH. The reaction was followed spectrophotometrically at 340 nm and at 25 °C for 4 min using a Cytation 3 cell imaging multi-mode reader from BioTek (BioTek, Winooski, VT, USA). Each measurement was repeated at least three times. For determination of inhibitory constants (Ki), the kinetics were monitored using three different final substrate concentrations (200, 400, and 800 μM, respectively).

Test [3] relates to MCF7, MDA-MB-231, MG-63, and HT-29 cell lines. As to the kind of experiment: MTT cell viability assay, all cell lines tested. As to conditions: 24 h, span over all cell lines, read-out: IC50 in all cancer cell lines tested. The test is classed as cell-based, Human. Here is the method:
as §1
Human breast cancer cell lines (MCF-7 and MDA-MB-231), human bone cancer cell line (MG-63), and human colorectal cancer cell line (HT-29) were grown in Dulbecco’s modified Eagle’s medium (DMEM) containing 10% fetal bovine serum (FBS), 100 IU/mL penicillin, and 100 μg/mL streptomycin at 37 °C in 5% CO2 atmosphere. These cancer cell lines were grown in a […] until they reached 70–80% confluence. […]
The 3-(4,5-dimethylthiazol-2-yl)-2,5-diphenyltetrazolium bromide (MTT) assay was performed according to Mosmann. […] Color development was measured spectrophotometrically with a microplate reader multiskan FC (Thermo scientific) at 570 nm after cell lysis in DMSO (100 µL per well). […]

The test system of test [4] is HT-29 (colorectal carcinoma). Nature of the test: MTT cell viability assay, HT-29. The settings on record: for IC50: 24 h of incubation, read-out: IC50 ± SD on HT-29. The test is classed as cell-based, Human. Here is the method:
as §1, §2, §3

Test [5] has as its system MDA-MB-231 (triple-negative breast adenocarcinoma). As to the kind of experiment: MTT cell viability assay, MDA-MB-231. The test is classed as cell-based, Human. The settings on record: for IC50: MTT, 24 h of incubation, read-out: IC50 ± SD on MDA-MB-231. Here is the method:
as §1, §2, §3

Values joined by “and” are separate entries in the source; they are usually repeats but may differ in a detail not shown here. Equal entries are not always repeated.

A word on the IC50: it is the point on the concentration scale where inhibition reaches its midpoint. What is called Ki is a dissociation constant, usually derived from enzyme kinetics or from competition with a known ligand. High values mean a looser hold on the target, low ones a stronger hold on the target. Regarding `C1=CC2=[S][Ru+]([As](c3ccccc3)(c3ccccc3)c3ccccc3)[O]N2C=C1.Cc1ccc(C(C)C)cc1.F[P-](F)(F)(F)(F)F` [Compound 8, [(η^6-p-cym)Ru(κ^2-O,S-C5H4NOS)(AsPh3)]PF6], the IC50 in the test on MG-63 (osteosarcoma) is 50.3 ± 2.5 µM; in test [1] it was 35.3 ± 12.1 µM; in test [2], 2.15 ± 0.4 µM; in test [3], 35 to 50 µM; in test [4] (MTT), 40.8 ± 8.5 µM; in test [5], 35.8 ± 11.4 µM. This compound also had a Ki in test [2] of 0.74 µM.

Consider `Cc1ccc(C(C)C)cc1.[Cl-].[O-]n1ccccc1=S.[Ru+2]` [Compound 1, [(η^6-cymene)(Ru)(pyrithionato)Cl]], for which the IC50 with MG-63 (osteosarcoma) is > 100 µM; in test [1], > 100 µM; in test [2], 3.15 ± 2.5 µM; in test [4] (MTT), > 100 µM; in test [5], > 100 µM. Also, in test [2], the affinity, expressed as Ki, was 0.75 µM.

In the case of `CCO[P](OCC)(OCC)[Ru+]1[O]N2C=CC=CC2=[S]1.Cc1ccc(C(C)C)cc1.F[P-](F)(F)(F)(F)F` [Compound 4, [(η^6-p-cym)Ru(κ^2-O,S-C5H4NOS)(P(OEt)3)]PF6], the concentration for half-maximal inhibition (IC50) is > 100 µM in the test on MG-63 (osteosarcoma); 45 µM and 45.5 µM in test [1]; 59.5 ± 0.9 µM in test [2]; > 100 µM in test [4] (MTT); > 100 µM in test [5].

For the compound “[(η^6-p-cym)Ru(κ^2-O,S-C5H4NOS)(cap)]PF6 [Compound 3]”, the IC50 (in the test on MG-63 (osteosarcoma); in test [1]; in test [4] (MTT); in test [5]) was > 100 µM throughout. Besides, in test [2], the “GST IC50” value is listed as “/ (no inhibitory activity in tested concentration range (<125 µg/mL))”.

Regarding `N.N.[Cl][Pt][Cl]` [Cisplatin, reference compound], the IC50 turned out to be 39 ± 1.8 µM in the test with MG-63 (osteosarcoma), 42 ± 3.2 µM in test [1], 180 ± 6 µM in test [4] (MTT) and 131 ± 18 µM in test [5].

As to `C1=CC2=[S][Ru+]([P](Oc3ccccc3)(Oc3ccccc3)Oc3ccccc3)[O]N2C=C1.Cc1ccc(C(C)C)cc1.F[P-](F)(F)(F)(F)F` [Compound 7, [(η^6-p-cym)Ru(κ^2-O,S-C5H4NOS)(P(OPh)3)]PF6], the IC50 is 28.2 ± 2.5 µM in the test on MG-63 (osteosarcoma); 33.7 ± 6.3 µM in test [1]; 2.88 ± 0.9 µM in test [2]; > 100 µM in test [4] (MTT); 18 ± 1.7 µM in test [5]. This compound returned a Ki in test [2] of 3.67 µM. In test [4] (MTT, 24 h), the “anticancer effect on colorectal cancer cells” value is recorded as “did not exert anticancer effect”.

For `C1=CC2=[S][Ru+]([P](c3ccccc3)(c3ccccc3)c3ccccc3)[O]N2C=C1.Cc1ccc(C(C)C)cc1.F[P-](F)(F)(F)(F)F` [Compound 6, [(η^6-p-cym)Ru(κ^2-O,S-C5H4NOS)(PPh3)]PF6], the IC50 with MG-63 (osteosarcoma) turned out to be 21.2 ± 1.7 µM; in test [1], 21.2 ± 3.2 µM; in test [2], 11.8 ± 1.1 µM; in test [4] (MTT), 30.2 ± 1.4 µM; in test [5], 10.8 ± 1 µM. In test [2], this compound had a Ki of 1.3 µM. For the same compound, the “IC50 fold lower than cisplatin on HT-29 cells” value in test [4] (versus cisplatin) is given as “six-fold”. The “IC50 fold lower than cisplatin on MDA-MB-231 cells” value in test [5] (versus cisplatin) is reported as “twelve-fold”.

Take `C1N2CN3CN1CP(C2)C3.Cc1ccc(C(C)C)cc1.F[P-](F)(F)(F)(F)F.[O-]n1ccccc1=S.[Ru+2]` [Compound 2, [(η^6-cymene)(Ru)(pyrithionato)(pta)]PF6]: the IC50 (with MG-63 (osteosarcoma); in test [1]; in test [4] (MTT); in test [5]) was > 100 µM each time. Moreover, the “GST IC50” value in test [2] is “/ (no inhibitory activity in tested concentration range (<125 µg/mL))”.
